The source of these data is patent publication US20100022476A1, “PYRAZOLYLAMINO SUBSTITUTED QUINAZOLES FOR THE TREATMENT OF CANCER” (ASTRAZENECA AB, priority 2004, published 2010).

The test system of series [1] is SW620 human colon tumour cells. The series is described as follows: In vitro cell phenotype and substrate phosphorylation assay (phosphohistone H3). It counts as cell-based. The note with it: SW-620, 24 hours of treatment, read-out: EC50 for inhibition of phosphohistone H3 levels. As for the experimental part:
(c) In Vitro Cell Phenotype and Substrate Phosphorylation Assay
This assay is used to determine the cellular effects of compounds on SW620 human colon tumour cells in vitro. Compounds typically cause inhibition of levels of phosphohistone H3 and an increase in the nuclear area of the cells.
10^4 SW620 cells per well were plated in 100 μl DMEM media (containing 10% FCS and 1% glutamine) (DMEM is Dulbecco's Modified Eagle's Medium (Sigma D6546)) in costar 96 well plates and left overnight at 37° C. and 5% CO2 to adhere. The cells were then dosed with compound diluted in media (50 μl is added to each well to give 0.00015μ-1 μM concentrations of compound) and after 24 hours of treatment with compound, the cells were fixed.
The cells were first examined using a light microscope and any cellular changes in morphology were noted. 100 μl of 3.7% formaldehyde was then added to each well, and the plate was left for at least 30 minutes at room temperature. Decanting and tapping the plate on a paper towel removed the fixative and plates were then washed once in PBS (Dulbecco's Phosphate Buffered Saline (Sigma D8537)) using an automated plate washer. […]
The next day, the antibody was tipped off and the plates were washed twice with PBS. […] 100 μl PBS was added to each well and the plates were sealed ready to analyse. […]

The test system of series [2] is drug-resistant MCF7-ADR human breast tumour cells. Briefly: In vitro drug-resistant cell phenotype and substrate phosphorylation assay (phosphohistone H3). It counts as cell-based. The note with it: NCI/ADR-RES, MCF7-ADR cells overexpressing drug-resistant proteins, read-out: EC50 for inhibition of phosphohistone H3 levels. As for the experimental part: (d) In Vitro Drug-Resistant Cell Phenotype and Substrate Phosphorylation Assay.
This assay is used to determine the cellular effects of compounds on drug-resistant MCF7-ADR human breast tumour cells in vitro.
Compounds typically cause inhibition of levels of phosphohistoneH3 and an increase in the nuclear area of treated cells.
0.8×10^4 MCF7-ADR cells per well were plated in 100 μl DMEM media (containing 10% FCS (foetal calf serum) and 1% glutamine) in costar 96 well plates and left overnight at 37° C. and 5% CO2 to adhere.
All other procedures are identical to those for the above assay using SW620 cells.

Series [3] in a line: Plasma protein binding assay (equilibrium dialysis). It counts as in vitro ADME. The note with it: human plasma, 20 μM compound, dialysed 18 hours at 37° C. Here is the method: (e) Plasma Protein Binding Assay
Plasma protein binding was measured using the equilibrium dialysis technique. Compound was added to human plasma to a concentration of 20 μM and dialysed with isotonic phosphate/sodium chloride buffer for 18 hours at 37° C. The plasma and buffer solutions on each side of the dialysis membrane were analysed using a generic LCUVMS (Waters 2795 HPLC with Micromass ZQ mass spectrometer) and the percentage of free compound in 100% plasma was determined.
On the technique in general: Equilibrium dialysis compares concentrations on both sides of a semipermeable membrane.

As a reminder, the EC50 is the concentration needed to bring the measured effect to its halfway point.

For `COc1cc(OCCN(C)CCO)c2c(Nc3cc(CC(=O)Nc4cccc(F)c4F)[nH]n3)ncnc2c1` [Compound 9, N-(2,3-difluorophenyl)-2-{3-[(5-{2-[(2-hydroxyethyl)(methyl)amino]ethoxy}-7-methoxyquinazolin-4-yl)amino]-1H-pyrazol-5-yl}acetamide], the values for the EC50 in series [1] and in series [2] were 7.6 nM and 400 nM, respectively. The “percentage of free compound in 100% plasma” value in series [3] was 3.9%.
